Measurements reported in paper PMC8058344, “ARIH1 signaling promotes anti-tumor immunity by targeting PD-L1 for proteasomal degradation” (Nature Communications, 2021).

Key:
CDK4 = CDK4 (Homo sapiens, UniProt P11802); test: In vitro kinase specificity profiling; assay type: biochemical
EGFR = EGFR (Homo sapiens, UniProt P00533); test: In vitro kinase specificity profiling; assay type: biochemical; settings: EGFR wild-type
PD-L1 = PD-L1 phosphorylation sites by mass spectrometry in HEK293T cells transfected with Flag-PD-L1; assay type: cell-based, human; settings: Flag-PD-L1, 10 μM ES-072 48 h, MS-MS
Description: Fig. 2 Phosphorylation on S279/S283 impairs the stability of PD-L1. a Mapping PD-L1 phosphorylation sites following ES-072 treatment. HEK293T cells were transfected with Flag-PD-L1 and treated with 10 μM ES-072 for 48 h. Immunoprecipitated PD-L1 was analyzed by mass spectrometry following phosphopeptide enrichment. Peptide ionization data corresponding to Ser279/283 are shown. b Schematic diagram of phosphorylated sites on PD-L1. Full-length PD-L1 was separated into an extracellular domain (ECD) and intracellular domain (ICD). SP: signal peptide; TM: transmembrane domain. c Schematic diagram of phosphorylated sites, S279 and S283 in the ICD of PD-L1. Positions of phosphorylated sites were labeled in red. This image was created by the first author. d Immunoblots of PD-L1 (anti-Flag) in HEK293T cells transfected with Flag-PD-L1 (WT) or Flag-PD-L1 (mutants) following treatment with 25 ng/mL EGF and/or 10 μM ES-072 for 48 h, 2SA represents S279A/S283A. e Immunoblots of PD-L1 (anti-Flag) in HEK293T cells transfected with Flag-PD-L1 (WT/2SA) following treatment with 20 μg/mL cycloheximide (CHX) for indicated times. f Immunoblots of H1975 cell lysates following ES-072 treatment for 2 h, at indicated doses. g HEK293T cells were transfected with Flag-PD-L1 (WT/2SA) following treatment with 10 μM ES-072 for 2 h; PD-L1 was immunoprecipitated with anti-Flag and immunoblotted with indicated antibodies. Flag-tagged empty vector (Flag-EV) was transfected as a negative control. h Representative images of p-PD-L1 (Ser279) and PD-L1 immunohistochemistry (IHC) staining from EGFR wild-type vs. mutant human alveolar adenocarcinoma specimens. Scale bars represent 50 μm. i, j Quantification of IHC analysis for p-PD-L1 (Ser279) (i) and PD-L1 (j) in h. Data represent means ± SEM, n = 7 (i), n = 5 (j), **P < 0.01, P = 0.0013 (i); P = 0.002 (j). k Immunoblottings of p-PD-L1 (Ser279) and PD-L1 in EGFR wild-type (n = 4) vs. mutant (n = 4) human lung adenocarcinoma specimens. Source data are provided as a Source Data file.
Flag-tagged PD-L1 was overexpressed in HEK293T cells and were trypsin-digested. PD-L1 was immunoprecipitated with beads following immunoprecipitation. The resulting peptides were subjected to the phosphopeptide enrichment using TiO2 beads. The enriched phospho-peptides were analyzed on the Q Exactive™ HF mass spectrometer (Thermo Fisher Scientific). The identification and quantification of phosphorylated peptides were done by MaxQuant. The tandem mass spectra were searched against the UniProt human protein database together with a set of commonly observed contaminants. The precursor mass tolerance was set as 20 p.p.m. and the fragment mass tolerance was set as 0.1 Da. The […] cysteine carbamide methylation was set as a static modification and the methionine oxidation, as well as serine, threonine, and tyrosine phosphorylation, were set as variable modifications. The false discovery rate (FDR) at peptide spectrum match level was controlled below 1%.

JAK2 = JAK2 (Homo sapiens, UniProt O60674); test: In vitro kinase specificity profiling; assay type: biochemical
EGFR T790M = EGFR T790M (Homo sapiens, UniProt P00533, T790M); test: In vitro kinase specificity profiling; assay type: biochemical
EGFR T790M, sequence (P00533 25-1210 T790M): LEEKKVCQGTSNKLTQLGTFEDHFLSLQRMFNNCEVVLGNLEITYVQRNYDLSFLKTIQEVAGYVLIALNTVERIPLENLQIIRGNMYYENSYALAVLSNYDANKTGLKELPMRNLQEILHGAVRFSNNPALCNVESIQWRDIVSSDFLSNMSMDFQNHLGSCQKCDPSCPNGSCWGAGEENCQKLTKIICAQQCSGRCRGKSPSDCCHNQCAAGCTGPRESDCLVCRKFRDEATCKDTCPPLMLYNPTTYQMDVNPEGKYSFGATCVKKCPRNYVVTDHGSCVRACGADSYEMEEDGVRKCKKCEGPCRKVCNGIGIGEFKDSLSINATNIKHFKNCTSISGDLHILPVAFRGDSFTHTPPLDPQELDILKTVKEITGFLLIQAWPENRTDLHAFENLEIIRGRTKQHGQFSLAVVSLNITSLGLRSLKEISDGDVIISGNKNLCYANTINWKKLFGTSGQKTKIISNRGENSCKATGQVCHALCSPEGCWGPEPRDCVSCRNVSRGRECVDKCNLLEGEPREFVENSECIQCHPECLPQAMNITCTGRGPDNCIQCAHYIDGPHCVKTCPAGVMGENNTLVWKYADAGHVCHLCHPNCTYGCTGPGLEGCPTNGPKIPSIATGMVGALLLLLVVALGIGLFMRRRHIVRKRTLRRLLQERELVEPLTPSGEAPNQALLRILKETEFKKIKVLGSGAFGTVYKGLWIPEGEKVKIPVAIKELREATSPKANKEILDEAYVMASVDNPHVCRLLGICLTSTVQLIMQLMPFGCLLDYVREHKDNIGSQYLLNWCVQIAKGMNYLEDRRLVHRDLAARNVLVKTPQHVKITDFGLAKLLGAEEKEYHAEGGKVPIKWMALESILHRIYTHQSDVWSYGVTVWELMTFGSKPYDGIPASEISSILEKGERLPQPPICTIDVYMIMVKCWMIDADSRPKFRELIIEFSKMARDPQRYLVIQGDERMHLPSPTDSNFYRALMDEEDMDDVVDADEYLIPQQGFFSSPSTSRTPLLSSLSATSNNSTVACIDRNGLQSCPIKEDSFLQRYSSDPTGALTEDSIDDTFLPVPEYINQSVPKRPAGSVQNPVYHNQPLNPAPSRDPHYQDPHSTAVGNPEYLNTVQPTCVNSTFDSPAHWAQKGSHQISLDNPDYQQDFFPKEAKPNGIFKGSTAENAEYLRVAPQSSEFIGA

KDR(VEGFR2) = KDR(VEGFR2) (Homo sapiens, UniProt P35968); test: In vitro kinase specificity profiling; assay type: biochemical
KDR(VEGFR2), sequence (P35968 20-1356, species assumed): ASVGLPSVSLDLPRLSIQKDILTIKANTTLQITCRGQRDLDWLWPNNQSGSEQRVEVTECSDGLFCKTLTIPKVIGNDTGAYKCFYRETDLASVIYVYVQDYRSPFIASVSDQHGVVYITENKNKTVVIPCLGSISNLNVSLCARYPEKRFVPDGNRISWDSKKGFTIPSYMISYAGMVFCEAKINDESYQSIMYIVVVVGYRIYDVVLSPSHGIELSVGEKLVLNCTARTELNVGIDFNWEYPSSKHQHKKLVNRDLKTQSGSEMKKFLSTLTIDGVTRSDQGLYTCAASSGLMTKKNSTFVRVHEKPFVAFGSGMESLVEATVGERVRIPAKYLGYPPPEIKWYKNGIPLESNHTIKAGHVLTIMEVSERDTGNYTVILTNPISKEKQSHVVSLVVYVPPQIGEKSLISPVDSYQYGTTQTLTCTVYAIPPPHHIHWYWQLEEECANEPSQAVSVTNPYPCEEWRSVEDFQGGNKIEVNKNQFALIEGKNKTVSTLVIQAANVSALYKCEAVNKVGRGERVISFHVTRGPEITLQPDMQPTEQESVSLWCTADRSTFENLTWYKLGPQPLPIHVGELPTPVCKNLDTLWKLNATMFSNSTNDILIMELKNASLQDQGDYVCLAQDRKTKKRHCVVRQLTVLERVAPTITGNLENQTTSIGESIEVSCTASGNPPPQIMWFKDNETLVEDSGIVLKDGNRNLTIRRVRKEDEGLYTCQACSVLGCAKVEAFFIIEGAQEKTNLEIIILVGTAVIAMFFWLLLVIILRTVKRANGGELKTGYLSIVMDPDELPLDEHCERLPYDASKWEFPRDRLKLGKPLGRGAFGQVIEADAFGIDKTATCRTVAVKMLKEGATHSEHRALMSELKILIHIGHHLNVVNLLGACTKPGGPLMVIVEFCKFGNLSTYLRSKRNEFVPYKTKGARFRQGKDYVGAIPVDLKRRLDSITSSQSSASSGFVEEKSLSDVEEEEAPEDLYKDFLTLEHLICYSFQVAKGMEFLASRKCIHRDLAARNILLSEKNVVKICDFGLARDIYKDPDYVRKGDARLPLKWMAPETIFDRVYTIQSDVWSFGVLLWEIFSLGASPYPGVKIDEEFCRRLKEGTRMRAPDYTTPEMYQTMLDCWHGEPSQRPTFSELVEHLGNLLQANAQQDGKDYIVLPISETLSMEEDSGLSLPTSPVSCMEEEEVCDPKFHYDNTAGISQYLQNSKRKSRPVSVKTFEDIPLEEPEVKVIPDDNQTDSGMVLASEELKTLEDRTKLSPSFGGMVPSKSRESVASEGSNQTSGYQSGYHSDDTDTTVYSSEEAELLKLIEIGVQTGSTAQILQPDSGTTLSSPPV

CDK4, sequence (P11802 whole entry, species assumed): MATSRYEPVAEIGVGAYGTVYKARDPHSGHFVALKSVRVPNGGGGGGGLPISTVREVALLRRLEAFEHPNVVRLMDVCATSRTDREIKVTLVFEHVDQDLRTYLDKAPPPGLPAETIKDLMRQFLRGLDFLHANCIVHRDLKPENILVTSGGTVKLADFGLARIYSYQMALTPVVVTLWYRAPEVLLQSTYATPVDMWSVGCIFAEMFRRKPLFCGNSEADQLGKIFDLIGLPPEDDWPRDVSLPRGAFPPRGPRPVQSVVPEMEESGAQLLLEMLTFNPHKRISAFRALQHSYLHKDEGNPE
CDK4, sequence (P30281 whole entry partner, species assumed): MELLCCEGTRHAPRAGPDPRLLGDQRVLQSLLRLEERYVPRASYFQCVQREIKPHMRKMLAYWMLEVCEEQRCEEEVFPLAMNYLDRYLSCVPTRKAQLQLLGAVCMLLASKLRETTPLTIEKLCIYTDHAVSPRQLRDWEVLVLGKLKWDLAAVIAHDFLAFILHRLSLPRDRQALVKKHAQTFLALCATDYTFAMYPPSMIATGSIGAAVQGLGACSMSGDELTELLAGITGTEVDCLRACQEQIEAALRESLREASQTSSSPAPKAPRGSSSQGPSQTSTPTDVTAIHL
EGFR, sequence (P00533 25-1210): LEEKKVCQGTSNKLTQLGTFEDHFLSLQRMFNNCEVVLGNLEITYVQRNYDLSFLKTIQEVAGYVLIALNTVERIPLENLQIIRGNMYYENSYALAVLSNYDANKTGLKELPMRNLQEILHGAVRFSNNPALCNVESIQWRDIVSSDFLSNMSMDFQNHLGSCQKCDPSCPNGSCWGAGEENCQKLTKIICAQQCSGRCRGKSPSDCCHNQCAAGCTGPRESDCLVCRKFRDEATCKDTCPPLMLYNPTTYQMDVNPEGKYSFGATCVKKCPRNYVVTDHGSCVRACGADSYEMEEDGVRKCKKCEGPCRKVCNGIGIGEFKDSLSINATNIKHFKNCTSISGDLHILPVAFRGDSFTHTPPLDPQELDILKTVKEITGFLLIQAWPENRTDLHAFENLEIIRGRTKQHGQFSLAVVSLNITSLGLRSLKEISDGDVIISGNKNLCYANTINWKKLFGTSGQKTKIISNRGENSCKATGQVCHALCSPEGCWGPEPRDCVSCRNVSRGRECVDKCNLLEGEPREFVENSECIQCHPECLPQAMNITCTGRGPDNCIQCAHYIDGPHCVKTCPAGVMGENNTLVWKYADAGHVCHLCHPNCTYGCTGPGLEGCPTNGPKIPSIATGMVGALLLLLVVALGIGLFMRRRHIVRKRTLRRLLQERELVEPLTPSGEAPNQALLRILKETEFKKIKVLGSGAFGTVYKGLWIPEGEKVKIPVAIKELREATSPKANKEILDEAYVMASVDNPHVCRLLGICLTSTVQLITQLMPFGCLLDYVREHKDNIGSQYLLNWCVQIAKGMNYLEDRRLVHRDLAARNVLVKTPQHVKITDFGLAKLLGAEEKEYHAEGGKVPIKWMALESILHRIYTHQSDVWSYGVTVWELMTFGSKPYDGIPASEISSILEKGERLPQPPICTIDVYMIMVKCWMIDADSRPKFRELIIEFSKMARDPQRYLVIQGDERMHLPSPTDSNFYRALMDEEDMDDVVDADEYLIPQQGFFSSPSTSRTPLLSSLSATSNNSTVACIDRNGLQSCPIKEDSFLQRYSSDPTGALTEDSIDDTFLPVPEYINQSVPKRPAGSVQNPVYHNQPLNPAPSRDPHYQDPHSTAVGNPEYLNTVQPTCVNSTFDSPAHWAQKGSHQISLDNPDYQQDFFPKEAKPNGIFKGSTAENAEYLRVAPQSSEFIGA

C=CC(=O)Nc1cccc(Nc2nc(Nc3ccc(N4CCN(C)CC4)nc3OC)ncc2C(F)(F)F)c1 [ES-072]
IC50 (CDK4): > 10 µM | IC50 (EGFR): 0.0089 µM | ES/NC (PD-L1 phosphorylation site S79) (PD-L1): 1.28 | ES/NC (PD-L1 phosphorylation site S93) (PD-L1): 1.52 | ES/NC (PD-L1 phosphorylation site S170) (PD-L1): 0.00 | ES/NC (PD-L1 phosphorylation site S176) (PD-L1): 0.00 | ES/NC (PD-L1 phosphorylation site S279) (PD-L1): 5.00 | ES/NC (PD-L1 phosphorylation site S283) (PD-L1): 2.06 | ES/NC (PD-L1 phosphorylation site T290) (PD-L1): 1.95 | IC50 (JAK2): 4.96 µM | IC50 (EGFR T790M): < 0.0005 µM | IC50 (KDR(VEGFR2)): 5.23 µM
